Assay results reported in patent EP0169787B1, “Use of oligonucleotides bonded to an intercalating agent as drugs” (priority 1984, dated 1986).
Where two headings read alike, the source gives them in different places.

Key:
cellules CV1 = type: cell-based, singe
Description: La dilution de virus dans un tampon phosphate isotonique a été choisie de façon […] cultures témoins environ 75% de destruction cellulaire (75% d'effet cytopathogène) après 3 jours d'incubation. Après 1 heure de contact à 37°C, l'inocu- lum […] du même milieu contenant ou non les produits à étudier sont ajoutés. […] Des cultures de cellules non infectées par le virus et traitées avec les produits ont été aussi examinées pour […] cytotoxiques éventuels. Les pourcentages de destruction cellulaire dans les cultures infectées (effet cytopathogène) et dans les cultures non infectées (effet cytotoxique des produits) sont indiqués dans le tableau V.

A/Victoria (H3N2) = type: cell-based; details: cellules MDCK; for Pourcentage de destruction cellulaire Cultures infectées (effet cytopathogène) par A/Victoria (H3N2): 3 jours
virus SV40 = assay: Inhibition of SV40 multiplication (cytopathogenic effect) in CV1 cell cultures; type: cell-based; details: 3 jours, témoins 75

| Compound | effet cytotoxique / toxicité vis-à-vis des cellules saines (cellules CV1) | Pourcentage de destruction cellulaire Cultures infectées (effet cytopathogène) par A/Victoria (H3N2) (A/Victoria (H3N2); 0,5 µg/ml) [%] | Pourcentage de destruction cellulaire Cultures infectées (effet cytopathogène) par A/Victoria (H3N2) (A/Victoria (H3N2); 0,25 µg/ml) [%] | Pourcentage de destruction cellulaire Cultures infectées (effet cytopathogène) par A/Victoria (H3N2) (A/Victoria (H3N2); 1,0 µg/ml) [%] | effet inhibiteur de la multiplication du virus grippal A/Victoria (H3N2) (A/Victoria (H3N2); result in words) | Pourcentage de destruction cellulaire Cultures infectées par SV40 (effet cytopathogène) (virus SV40; 0,5 µg/ml) [%] | Pourcentage de destruction cellulaire Cultures infectées par SV40 (effet cytopathogène) (virus SV40; 0,5 µg/ml, listed as Acr(CH2)50H) | Pourcentage de destruction cellulaire Cultures infectées par SV40 (effet cytopathogène) (virus SV40; 0,25 µg/ml) [%] | Pourcentage de destruction cellulaire Cultures infectées par SV40 (effet cytopathogène) (virus SV40; 0,25 µg/ml, listed as Acr(CH2)50H) | Pourcentage de destruction cellulaire Cultures infectées par SV40 (effet cytopathogène) (virus SV40; 1,0 µg/ml) [%] | Pourcentage de destruction cellulaire Cultures infectées par SV40 (effet cytopathogène) (virus SV40; 2,0 µg/ml) [%] |
| --- | --- | --- | --- | --- | --- | --- | --- | --- | --- | --- | --- |
| COc1ccc2nc3cc(Cl)ccc3c(NCCCCCCO)c2c1 [HO(CH2)6 Z", méthoxy-2-chloro-6(ω-hydroxyhexylamino)-9 acridine] | trop important |  |  |  |  |  |  |  |  |  |  |
| COc1ccc2nc3cc(Cl)ccc3c(NCCCCCO)c2c1 [Acr(CH2)5OH, méthoxy-2 chloro-6 (ω-hydroxypentyl-amino)-9 acridine] |  | 100 | 100 | 100 | dépourvu d'activité | 50 | n'exerce pas d'effet inhibiteur significatif | 75 | n'exerce pas d'effet inhibiteur significatif | 75 | 100 |
